This is an account of results in paper PMC12541587 (Acta Pharmaceutica Sinica. B, 2025).

By Ki is commonly meant a dissociation constant, usually derived from enzyme kinetics or from competition with a known ligand.

Values joined by “and” are separate entries in the source; they are usually repeats but may differ in a detail not shown here. Equal entries are not always repeated. Where two headings read alike, the source gives them in different places.

Series [1] deals with σ1R (Rattus norvegicus, UniProt Q9R0C9). The series is described as follows: biochemical. Type of series: binding. The note with it: for inhibition at 10 µM: read-out: σ1R Inhibition; for inhibition at 1 µM: read-out: σ1R inhibitory rate at 1 μmol/L.
Sequence of σ1R (Rattus norvegicus, UniProt Q9R0C9) (Q9R0C9 whole entry): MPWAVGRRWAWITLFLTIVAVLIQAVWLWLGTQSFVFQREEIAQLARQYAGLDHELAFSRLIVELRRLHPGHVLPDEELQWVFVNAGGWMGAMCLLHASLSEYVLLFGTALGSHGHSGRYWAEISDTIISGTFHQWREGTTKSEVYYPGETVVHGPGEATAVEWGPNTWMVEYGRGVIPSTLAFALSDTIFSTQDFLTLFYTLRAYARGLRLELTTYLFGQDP
In the next series the target is T1, σ2R (Rattus norvegicus, UniProt Q5U3Y7).
T1 sequence (Q5U3Y7 1-176): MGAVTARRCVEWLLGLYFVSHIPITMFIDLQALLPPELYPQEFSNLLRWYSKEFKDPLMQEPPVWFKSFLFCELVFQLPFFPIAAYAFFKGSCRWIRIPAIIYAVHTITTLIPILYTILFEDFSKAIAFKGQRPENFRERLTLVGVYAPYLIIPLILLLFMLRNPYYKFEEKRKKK
The series is described as follows: σ2R radioligand binding assay.

The test system of series [2] is σ1R. The format is binding, rat. To be noted: Ki without DPH / Ki with DPH 250 μmol/L.
For the next series, the target named is T2, CYP1A2 (Homo sapiens, UniProt P05177).
T2 sequence (P05177 1-516): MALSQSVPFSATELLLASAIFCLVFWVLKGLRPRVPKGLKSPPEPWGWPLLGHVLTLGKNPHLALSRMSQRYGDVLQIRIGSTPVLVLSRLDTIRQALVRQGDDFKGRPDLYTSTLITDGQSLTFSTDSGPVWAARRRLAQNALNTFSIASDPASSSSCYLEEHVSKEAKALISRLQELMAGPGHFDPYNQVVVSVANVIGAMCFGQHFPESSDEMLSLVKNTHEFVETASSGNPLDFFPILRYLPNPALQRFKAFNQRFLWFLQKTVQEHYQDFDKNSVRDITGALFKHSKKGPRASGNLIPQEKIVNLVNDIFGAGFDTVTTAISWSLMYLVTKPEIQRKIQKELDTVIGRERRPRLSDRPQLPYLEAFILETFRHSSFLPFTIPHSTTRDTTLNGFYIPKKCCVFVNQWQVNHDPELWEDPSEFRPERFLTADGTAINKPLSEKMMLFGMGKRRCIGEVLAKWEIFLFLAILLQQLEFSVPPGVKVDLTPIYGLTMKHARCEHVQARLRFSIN
The series is described as follows: in vitro.

The target in the next series is CYP2C19 (Homo sapiens, UniProt P33261). The series is described as follows: CYP450 inhibition: CYP2C19. The note with it: probe S-mephenytoin (35 μmol/L).
Sequence of CYP2C19 (P33261 whole entry): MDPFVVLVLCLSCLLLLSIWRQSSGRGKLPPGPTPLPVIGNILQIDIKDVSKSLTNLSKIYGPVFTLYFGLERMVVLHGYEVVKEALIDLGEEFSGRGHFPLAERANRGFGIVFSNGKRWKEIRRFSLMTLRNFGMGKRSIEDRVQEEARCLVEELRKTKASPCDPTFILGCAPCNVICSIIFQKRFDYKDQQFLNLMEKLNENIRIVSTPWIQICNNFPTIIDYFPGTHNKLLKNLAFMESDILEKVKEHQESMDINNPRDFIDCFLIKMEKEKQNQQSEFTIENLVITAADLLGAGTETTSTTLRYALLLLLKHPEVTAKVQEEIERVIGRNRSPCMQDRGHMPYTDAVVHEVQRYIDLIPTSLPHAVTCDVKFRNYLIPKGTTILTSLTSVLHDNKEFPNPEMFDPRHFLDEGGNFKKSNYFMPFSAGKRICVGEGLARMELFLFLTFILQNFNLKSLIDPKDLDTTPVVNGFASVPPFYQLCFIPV
The target in the next series is σ1R-LgBiT and BiP-SmBiT (Homo sapiens, UniProt Q99720). The series is described as follows: NanoBiT σ1R-BiP heterodimerization assay. The format is cell-based. The note with it: 10 μmol/L.
Sequence of σ1R-LgBiT and BiP-SmBiT (Q99720 whole entry): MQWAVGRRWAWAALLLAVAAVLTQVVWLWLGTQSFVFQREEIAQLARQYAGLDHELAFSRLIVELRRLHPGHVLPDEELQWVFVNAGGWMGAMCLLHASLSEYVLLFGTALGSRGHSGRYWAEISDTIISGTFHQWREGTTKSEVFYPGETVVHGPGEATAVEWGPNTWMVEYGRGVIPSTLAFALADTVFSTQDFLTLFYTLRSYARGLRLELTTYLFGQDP
Another series concerns the target dopamine D3. To be noted: read-out: dopamine D3 Ki; cited from earlier work.
Series [3] concerns the target σ1R. The note with it: read-out: σ1R Ki (clinical σ1R agonists); cited from earlier work.
Another series deals with D2/D3 receptor. To be noted: healthy volunteers and Huntington disease patients; cited from earlier work.
In series [4] the test system is σ1R. The note with it: healthy volunteers and Huntington disease patients; cited from earlier work.
The next series deals with catalepsy. The series is described as follows: Catalepsy bar test. Type of series: in vivo, mice.

Regarding `COc1ccc(/C(C)=N/OCCCN2CCCCC2)cc1` [15l], on σ1R [1], the affinity corresponds to a Ki of 0.0394 ± 0.0034 µM and the inhibition at 10 µM amounted to 93.2%.

As to `FC(F)(F)c1ccc2c(c1)OCC/C2=N\OCCCN1CCCCC1` [15o], on σ1R [1], the inhibitory constant (Ki) amounted to 0.0762 ± 0.00292 µM and the inhibition at 10 µM came to 99.3%.

As for `C/C(=N\OCCN1CCOCC1)c1ccccc1` [16p], at σ1R [1], the inhibition at 10 µM came out at 74.4% and the inhibition at 1 µM is -8.25%.

With `COc1ccc(/C(C)=N/OCCN2CCOCC2)cc1` [16q], on σ1R [1], the inhibition at 10 µM came to 93.2% and the inhibition at 1 µM amounted to 37.8%.

As to `C/C(=N\OCCN1CCOCC1)c1ccc(Br)cc1` [16r], at σ1R [1], the inhibition at 10 µM was 106% and the inhibition at 1 µM stood at 55.4%.

On to `C/C(=N\OCCN1CCOCC1)c1ccc(C)cc1` [16s], for which the inhibition at 10 µM at σ1R [1] turned out to be 66.2%.

For the compound `CC(C)=CCN1CC[C@]2(C)c3cc(O)ccc3C[C@H]1[C@H]2C` [(+)-Pentazocine], the inhibition at 10 µM on σ1R [1] is 99%. In addition, the affinity at σ2R, expressed as Ki, was 0.673 ± 0.0275 µM.

For the compound `CN(C)CCN(C)CCc1ccc(Cl)c(Cl)c1` [BD1047], the Ki on σ1R [1] (read-out: σ1R Ki, mean ± SEM, n = 3) amounted to 0.00087 ± 0.00015 µM. Also, the “Ratios Ki/(Ki + phenytoin)” value in the series with σ1R [2] is 0.63 ± 0.20.

Consider `COCCCC/C(=N\OCCN)c1ccc(C(F)(F)F)cc1` [Fluvoxamine], for which the figures for the inhibition at 10 μmol/L at CYP1A2 and at CYP2C19 were 95.7% and 95%, respectively. The inhibition at 10 µM at σ1R [1] is 81.8%.

For `O=C(OCCN1CCOCC1)C1(c2ccccc2)CCCCC1` [PRE084], the “σ1R-LgBiT/BiP-SmBiT interaction, 10 min treatment” value at σ1R-LgBiT and BiP-SmBiT is “decreased this interaction”. Moreover, the Ki at σ1R [1] (read-out: σ1R Ki) was found to be 0.0231 ± 0.00317 µM.

`CCCN1CCC(c2cccc(S(C)(=O)=O)c2)CC1` [Pridopidine]: the results for the Ki on dopamine D3 and on σ1R [3] were 1.63 µM and 0.057 µM, respectively. Moreover, the “D2/D3 receptor occupancy (PET)” value with D2/D3 receptor is on record as about 3%. Besides, the “σ1R occupancy (PET)” value with σ1R [4] was about 90%.

In the case of `C=CCN1CCC2(C)c3cc(O)ccc3CC1C2C` (stereo not shown) [SKF10047], the affinity on σ1R [1], expressed as Ki, was 0.292 ± 0.00618 µM. In addition, the “Ratios Ki/(Ki + phenytoin)” value in the series with σ1R [2] was 7.10 and 7.10 ± 0.74.

Regarding `Cc1nc2n(c(=O)c1CCN1CCC(c3noc4cc(F)ccc34)CC1)CCCC2` [risperidone], the “mean catalepsy duration at peak response” value in the series with catalepsy (3 mg/kg risperidone, 60 min post-administration) was 49.57 min. Moreover, in the series with catalepsy (oral, 15d 10 to 45 mg/kg, risperidone 3 mg/kg), the cataleptic response entry was “catalepsy induced by 3 mg/kg risperidone was observed”.
